Source: US20240398811A1, “PRC2 INHIBITORS FOR USE IN TREATING BLOOD DISORDERS” (ORIC Pharmaceuticals, Inc., priority 2021, published 2024)

molecular target: purified human, His-tagged PRC2 complex (Homo sapiens (Human), UniProt O75530); experiment: Hot Spot HMT assay, inhibition of PRC2 enzymatic activity; assay type: biochemical; details: 10 nM PRC2 complex, 1 μM 3H-SAM, core histone H3, 10-point dose-response
From the text: The assay uses purified human, His-tagged PRC2 complex, including N-terminal His-tagged EZH2 enzyme, N-terminal Flag-tagged embryonic ectoderm development protein (EED), N-terminal His-tagged suppressor of zeste 12 (SUZ12), N-terminal His-tagged AEBP2, and N-terminal His-tagged RbAp48. In this assay, the transfer of the tritiated methyl group from radiolabeled S-adenosyl methionine (SAM) to purified core histone protein by EZH2 is quantitated after filtration to determine the activity of the core PRC2 complex in the presence and absence of compound.
The initial starting concentration for the serial dilutions of each compound was 1.0 μM. […] SAH (S-(5-adenosyl)-L-homocysteine) was used as a positive control for assay validation.
An aliquot of each serial dilution of test compound was added to deep 384 well plate using Acoustic Technology instrument (Echo 550, LabCyte) containing reaction buffer (50 mM Tris-HCl (pH 8.)), 0.01% Brij35, 1 mM EDTA, 1 mM DTT, 1 mM PMSF and 1% DMSO), 10 nM purified PRC2 complex and 0.05 mg/ml core histone H3 in a 5 μl volume. The reaction was mixed gently and then pre-incubated for 20 min at 30° C. The enzymatic reaction was initiated by adding 1 μM S-Adenosyl-L-[methyl-^3H]methionine and incubated for 1 hr at 30° C. After 1 hr, the reaction product was detected using a filter binding method and the amount of tritiated H3 core histone was quantitated using a scintillation counter. […] Key: A=<100 nM; B=>100 nM-<500 nM; and C=>500 nM.

purified human, His-tagged PRC2 complex, sequence (O75530 whole entry): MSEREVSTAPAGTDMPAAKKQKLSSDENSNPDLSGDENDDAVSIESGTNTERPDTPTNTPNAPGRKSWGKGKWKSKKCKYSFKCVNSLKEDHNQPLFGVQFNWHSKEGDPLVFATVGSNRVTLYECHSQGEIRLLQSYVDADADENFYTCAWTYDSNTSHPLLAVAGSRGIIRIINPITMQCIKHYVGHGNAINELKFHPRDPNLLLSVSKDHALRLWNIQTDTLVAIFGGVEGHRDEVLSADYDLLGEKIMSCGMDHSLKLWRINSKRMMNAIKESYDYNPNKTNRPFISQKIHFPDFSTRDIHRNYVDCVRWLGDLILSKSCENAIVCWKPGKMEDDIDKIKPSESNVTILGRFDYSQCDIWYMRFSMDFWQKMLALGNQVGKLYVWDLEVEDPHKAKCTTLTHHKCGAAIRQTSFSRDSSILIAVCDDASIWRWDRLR
purified human, His-tagged PRC2 complex, sequence (Q15910 whole entry partner): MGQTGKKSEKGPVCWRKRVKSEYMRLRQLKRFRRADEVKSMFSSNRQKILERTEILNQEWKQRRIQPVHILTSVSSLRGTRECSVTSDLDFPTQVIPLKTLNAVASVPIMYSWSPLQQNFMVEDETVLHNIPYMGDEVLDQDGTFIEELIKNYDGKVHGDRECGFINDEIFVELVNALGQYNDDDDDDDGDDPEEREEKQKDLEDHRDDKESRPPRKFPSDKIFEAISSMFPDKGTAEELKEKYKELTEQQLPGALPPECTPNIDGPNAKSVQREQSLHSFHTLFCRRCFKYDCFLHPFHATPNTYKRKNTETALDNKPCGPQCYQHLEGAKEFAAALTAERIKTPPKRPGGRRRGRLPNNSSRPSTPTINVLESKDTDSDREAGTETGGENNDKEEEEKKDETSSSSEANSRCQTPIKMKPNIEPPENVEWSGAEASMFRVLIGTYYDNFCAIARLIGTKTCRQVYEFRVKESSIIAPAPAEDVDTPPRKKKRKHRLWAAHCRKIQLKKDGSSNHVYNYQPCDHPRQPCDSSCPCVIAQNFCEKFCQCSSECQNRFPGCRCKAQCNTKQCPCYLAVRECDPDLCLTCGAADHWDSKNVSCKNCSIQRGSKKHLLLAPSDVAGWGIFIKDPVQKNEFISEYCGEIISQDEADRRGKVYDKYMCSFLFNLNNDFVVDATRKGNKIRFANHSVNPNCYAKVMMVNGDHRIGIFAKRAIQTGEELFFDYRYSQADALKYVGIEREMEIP
purified human, His-tagged PRC2 complex, sequence (Q15022 whole entry partner): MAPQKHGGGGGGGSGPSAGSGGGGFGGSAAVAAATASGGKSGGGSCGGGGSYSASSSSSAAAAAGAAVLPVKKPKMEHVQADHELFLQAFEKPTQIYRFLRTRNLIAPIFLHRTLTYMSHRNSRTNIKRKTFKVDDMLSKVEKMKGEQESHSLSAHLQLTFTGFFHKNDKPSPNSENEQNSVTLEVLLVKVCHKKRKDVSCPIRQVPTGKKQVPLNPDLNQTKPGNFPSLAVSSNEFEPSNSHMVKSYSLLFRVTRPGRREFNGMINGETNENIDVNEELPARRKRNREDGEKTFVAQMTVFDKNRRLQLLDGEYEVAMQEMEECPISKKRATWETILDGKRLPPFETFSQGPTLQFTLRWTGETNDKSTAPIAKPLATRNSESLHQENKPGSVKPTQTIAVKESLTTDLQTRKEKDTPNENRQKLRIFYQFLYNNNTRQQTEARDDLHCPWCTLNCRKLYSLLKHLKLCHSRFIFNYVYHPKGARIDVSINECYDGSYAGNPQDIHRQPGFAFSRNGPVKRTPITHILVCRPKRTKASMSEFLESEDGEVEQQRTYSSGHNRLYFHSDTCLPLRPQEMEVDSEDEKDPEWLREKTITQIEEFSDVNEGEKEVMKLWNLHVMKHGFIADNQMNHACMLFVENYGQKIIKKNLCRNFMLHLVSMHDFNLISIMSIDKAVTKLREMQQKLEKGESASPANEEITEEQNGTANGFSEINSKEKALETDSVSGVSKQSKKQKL
purified human, His-tagged PRC2 complex, sequence (Q6ZN18 whole entry partner): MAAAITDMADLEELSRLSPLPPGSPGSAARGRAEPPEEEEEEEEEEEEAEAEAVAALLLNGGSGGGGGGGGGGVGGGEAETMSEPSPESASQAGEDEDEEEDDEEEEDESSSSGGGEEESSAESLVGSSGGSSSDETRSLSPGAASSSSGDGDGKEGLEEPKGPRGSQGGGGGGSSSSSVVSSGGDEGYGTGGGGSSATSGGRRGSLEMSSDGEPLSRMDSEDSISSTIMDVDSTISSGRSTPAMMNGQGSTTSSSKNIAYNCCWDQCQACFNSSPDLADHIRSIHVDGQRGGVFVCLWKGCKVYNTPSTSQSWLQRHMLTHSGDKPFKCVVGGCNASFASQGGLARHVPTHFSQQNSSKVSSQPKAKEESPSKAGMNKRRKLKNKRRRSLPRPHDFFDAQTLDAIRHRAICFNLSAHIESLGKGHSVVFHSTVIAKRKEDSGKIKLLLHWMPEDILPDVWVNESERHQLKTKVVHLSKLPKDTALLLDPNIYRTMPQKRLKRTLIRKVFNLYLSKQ
purified human, His-tagged PRC2 complex, sequence (Q09028 whole entry partner): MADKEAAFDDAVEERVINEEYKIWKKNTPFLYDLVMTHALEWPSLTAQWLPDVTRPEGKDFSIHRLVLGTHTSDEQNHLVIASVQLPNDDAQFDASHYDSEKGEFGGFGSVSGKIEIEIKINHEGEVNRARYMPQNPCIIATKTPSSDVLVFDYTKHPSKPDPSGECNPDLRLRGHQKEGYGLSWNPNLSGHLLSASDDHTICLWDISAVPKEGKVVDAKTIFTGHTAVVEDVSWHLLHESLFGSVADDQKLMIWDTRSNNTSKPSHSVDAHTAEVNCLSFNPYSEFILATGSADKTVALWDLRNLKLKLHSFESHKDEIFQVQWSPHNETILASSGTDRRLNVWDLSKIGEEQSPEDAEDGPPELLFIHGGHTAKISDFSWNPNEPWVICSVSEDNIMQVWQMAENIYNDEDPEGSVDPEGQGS

IC50	Compound
< 100 nM	N#Cc1cn2c(NCc3c(F)ccc4c3CCO4)ncc(-c3ccccc3)c2n1 [Example 46, 5-(((5-fluoro-2,3-dihydrobenzofuran-4-yl)methyl)amino)-8-phenylimidazo[1,2-c]pyrimidine-2-carbonitrile]
< 100 nM	N#Cc1cn2c(NCc3c(F)ccc4c3CCO4)ncc(-c3ccc(S(N)(=O)=O)cc3)c2n1 [Example 47, 4-(2-cyano-5-(((5-fluoro-2,3-dihydrobenzofuran-4-yl)methyl)amino)imidazo[1,2-c]pyrimidin-8-yl)benzenesulfonamide]
< 100 nM	Cc1cc(S(=O)(=O)N(C)C)ccc1-c1cnc(NCc2c(F)ccc3c2CCO3)n2cc(C#N)nc12 [Example 48, 4-(2-cyano-5-(((5-fluoro-2,3-dihydrobenzofuran-4-yl)methyl)amino)imidazo[1,2-c]pyrimidin-8-yl)-N,N,3-trimethylbenzenesulfonamide]
< 100 nM	N#Cc1cn2c(NCc3c(F)ccc4c3CCO4)ncc(-c3ccc(CN4CCCC4=O)cc3)c2n1 [Example 49, 5-(((5-fluoro-2,3-dihydrobenzofuran-4-yl)methyl)amino)-8-(4-((2-oxopyrrolidin-1-yl)methyl)phenyl)imidazo[1,2-c]pyrimidine-2-carbonitrile]
< 100 nM	COC1CN(Cc2ccc(-c3cnc(NCc4c(F)ccc5c4CCO5)n4cc(C#N)nc34)cc2)C1 [Example 50, 5-(((5-fluoro-2,3-dihydrobenzofuran-4-yl)methyl)amino)-8-(4-((3-methoxyazetidin-1-yl)methyl)phenyl)imidazo[1,2-c]pyrimidine-2-carbonitrile]
< 100 nM	N#Cc1cn2c(NCc3c(F)ccc4c3CCO4)ncc(-c3ccc(CN4CC(F)(F)C4)cc3)c2n1 [Example 51, 8-(4-((3,3-difluoroazetidin-1-yl)methyl)phenyl)-5-(((5-fluoro-2,3-dihydrobenzofuran-4-yl)methyl)amino)imidazo[1,2-c]pyrimidine-2-carbonitrile]
< 100 nM	N#Cc1cn2c(NCc3c(F)ccc4c3CCO4)ncc(-c3ccc(CN4CC5CC5C4)cc3)c2n1 (stereo not shown) [Example 52, 8-(4-((3-azabicyclo[3.1.0]hexan-3-yl)methyl)phenyl)-5-(((5-fluoro-2,3-dihydrobenzofuran-4-yl)methyl)amino)imidazo[1,2-c]pyrimidine-2-carbonitrile]
< 100 nM	N#Cc1cn2c(NCc3c(F)ccc4c3CCO4)ncc(-c3ccc(CN4CCC(F)C4)cc3)c2n1 (stereo not shown) [Example 54, 5-(((5-fluoro-2,3-dihydrobenzofuran-4-yl)methyl)amino)-8-(4-((3-fluoropyrrolidin-1-yl)methyl)phenyl)imidazo[1,2-c]pyrimidine-2-carbonitrile]
< 100 nM	N#Cc1cn2c(NCc3c(F)ccc4c3CCO4)ncc(-c3ccc(CN4CCC(F)(F)C4)cc3)c2n1 [Example 55, 8-(4-((3,3-difluoropyrrolidin-1-yl)methyl)phenyl)-5-(((5-fluoro-2,3-dihydrobenzofuran-4-yl)methyl)amino)imidazo[1,2-c]pyrimidine-2-carbonitrile]
< 100 nM	CN(C)S(=O)(=O)c1ccc(-c2cnc(NCc3c(F)ccc4c3CCO4)n3cc(C#N)nc23)cc1 [Example 58, 4-(2-cyano-5-(((5-fluoro-2,3-dihydrobenzofuran-4-yl)methyl)amino)imidazo[1,2-c]pyrimidin-8-yl)-N,N-dimethylbenzenesulfonamide]
< 100 nM	CNS(=O)(=O)c1ccc(-c2cnc(NCc3c(F)ccc4c3CCO4)n3cc(C#N)nc23)cc1 [Example 59, 4-(2-cyano-5-(((5-fluoro-2,3-dihydrobenzofuran-4-yl)methyl)amino)imidazo[1,2-c]pyrimidin-8-yl)-N-methylbenzenesulfonamide]
100 to 500 nM	CN(C)c1ccc(-c2cnc(NCc3c(F)ccc4c3CCO4)n3cc(C#N)nc23)cn1 [Example 60, 8-(6-(dimethylamino)pyridin-3-yl)-5-(((5-fluoro-2,3-dihydrobenzofuran-4-yl)methyl)amino)imidazo[1,2-c]pyrimidine-2-carbonitrile]

More lines, now with the values behind:

Compound	IC50
Cc1cc(C(=O)N(C)C)ccc1-c1cnc(NCc2c(F)ccc3c2CCO3)n2cc(C#N)nc12 [Example 44, 4-(2-cyano-5-(((5-fluoro-2,3-dihydrobenzofuran-4-yl)methyl)amino)imidazo[1,2-c]pyrimidin-8-yl)-N,N,3-trimethylbenzamide]	< 100 nM
CN(C)C(=O)c1c(F)cc(-c2cnc(NCc3c(F)ccc4c3CCO4)n3cc(C#N)nc23)cc1F [Example 45, 4-(2-cyano-5-(((5-fluoro-2,3-dihydrobenzofuran-4-yl)methyl)amino)imidazo[1,2-c]pyrimidin-8-yl)-2,6-difluoro-N,N-dimethylbenzamide]	< 100 nM
COC1CCN(Cc2ccc(-c3cnc(NCc4c(F)ccc5c4CCO5)n4cc(C#N)nc34)cc2)C1 (stereo not shown) [Example 53, 5-(((5-fluoro-2,3-dihydrobenzofuran-4-yl)methyl)amino)-8-(4-((3-methoxypyrrolidin-1-yl)methyl)phenyl)imidazo[1,2-c]pyrimidine-2-carbonitrile]	< 100 nM
Cc1nc(N2CCOCC2)ccc1-c1cnc(NCc2c(F)ccc3c2CCO3)n2cc(C#N)nc12 [Example 56, 5-(((5-fluoro-2,3-dihydrobenzofuran-4-yl)methyl)amino)-8-(2-methyl-6-morpholinopyridin-3-yl)imidazo[1,2-c]pyrimidine-2-carbonitrile]	< 100 nM
N#Cc1cn2c(NCc3c(F)ccc4c3CCO4)ncc(-c3ccncn3)c2n1 [Example 57, 5-(((5-fluoro-2,3-dihydrobenzofuran-4-yl)methyl)amino)-8-(pyrimidin-4-yl)imidazo[1,2-c]pyrimidine-2-carbonitrile]	< 100 nM
CN(C)Cc1ccc(-c2cnc(NCc3c(F)ccc4c3CCO4)n3cc(C#N)nc23)c(F)c1 [Example 61, 8-(4-((dimethylamino)methyl)-2-fluorophenyl)-5-(((5-fluoro-2,3-dihydrobenzofuran-4-yl)methyl)amino)imidazo[1,2-c]pyrimidine-2-carbonitrile]	< 100 nM
Cc1ncc(F)cc1-c1cnc(NCc2c(F)ccc3c2CCO3)n2cc(C#N)nc12 [Example 62, 5-(((5-fluoro-2,3-dihydrobenzofuran-4-yl)methyl)amino)-8-(5-fluoro-2-methylpyridin-3-yl)imidazo[1,2-c]pyrimidine-2-carbonitrile]	< 100 nM
CN(C)Cc1ccc(-c2cnc(NCc3c(F)ccc4c3CCO4)n3cc(C#N)nc23)cc1F [Example 63, 8-(4-((dimethylamino)methyl)-3-fluorophenyl)-5-(((5-fluoro-2,3-dihydrobenzofuran-4-yl)methyl)amino)imidazo[1,2-c]pyrimidine-2-carbonitrile]	< 100 nM
N#Cc1cn2c(NCc3c(F)ccc4c3CCO4)ncc(-c3cccnc3C(F)F)c2n1 [Example 64, 8-(2-(difluoromethyl)pyridin-3-yl)-5-(((5-fluoro-2,3-dihydrobenzofuran-4-yl)methyl)amino)imidazo[1,2-c]pyrimidine-2-carbonitrile]	< 100 nM
Cc1nn(C[C@H](C)O)c(C)c1-c1cnc(NCc2c(F)ccc3c2CCO3)n2cc(C#N)nc12 [Example 65, (S)-5-(((5-fluoro-2,3-dihydrobenzofuran-4-yl)methyl)amino)-8-(1-(2-hydroxypropyl)-3,5-dimethyl-1H-pyrazol-4-yl)imidazo[1,2-c]pyrimidine-2-carbonitrile]	100 to 500 nM
